# According to the supplement of paper PMC10307832:
# Key:
# Assay in all cases: relative viability (nuclei count vs DMSO), 5 days (fraction); higher = more cells survive
# [1] = compound: C1=CC(=CC=C1NC(=S)NNC2=C(C=C(C=C2[N+](=O)[O-])C(F)(F)F)[N+](=O)[O-])F [Kobe2602] + CC(=O)c1c(C)c2cnc(Nc3ccc(N4CCNCC4)cn3)nc2n(C2CCCC2)c1=O [Palbociclib] (partner 0.5 µM)
# In short: (§1)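 Values are medians from duplicate plates. Each reflects relative viability, defined as the nuclei count of treated wells over that of vehicle wells. Lung cancer cell lines in 1536-well plates were pin-tool dosed one day after seeding with one drug alone or with a fixed anchor-drug dose plus five library-drug doses (not always all listed) in √10 steps, then fixed, stained and imaged at 4× after 5 days.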
# [2] = compound: COc1cc2nccc(Oc3ccc(NC(=O)C4(C(=O)Nc5ccc(F)cc5)CC4)cc3)c2cc1OC [Cabozantinib] + O=C(c1cc(Cc2n[nH]c(=O)c3ccccc23)ccc1F)N1CCN(C(=O)C2CC2)CC1 [Olaparib] (partner 8 µM)
# In short: as §1
# [3] = compound: COc1cc2nccc(Oc3ccc(NC(=O)C4(C(=O)Nc5ccc(F)cc5)CC4)cc3)c2cc1OC [Cabozantinib] + CS(=O)(=O)CCNCc1ccc(-c2ccc3ncnc(Nc4ccc(OCc5cccc(F)c5)c(Cl)c4)c3c2)o1 [Lapatinib] (partner 2 µM)
# In short: as §1
# [4] = compound: C1=CC(=CC=C1NC(=S)NNC2=C(C=C(C=C2[N+](=O)[O-])C(F)(F)F)[N+](=O)[O-])F [Kobe2602] + CS(=O)(=O)N1CCN(Cc2cc3nc(-c4cccc5[nH]ncc45)nc(N4CCOCC4)c3s2)CC1 [Pictilisib] (partner 1 µM)
# In short: as §1
Cell Line,relative viability ([1]; first compound 0.2 µM),relative viability ([1]; first compound 0.6325 µM),relative viability ([1]; first compound 2 µM),relative viability ([1]; first compound 6.325 µM),relative viability ([1]; first compound 20 µM),relative viability ([2]; first compound 0.02 µM),relative viability ([2]; first compound 0.06325 µM),relative viability ([2]; first compound 0.2 µM),relative viability ([2]; first compound 0.6325 µM),relative viability ([2]; first compound 2 µM),relative viability ([3]; first compound 0.02 µM),relative viability ([3]; first compound 0.06325 µM),relative viability ([3]; first compound 0.2 µM),relative viability ([3]; first compound 0.6325 µM),relative viability ([3]; first compound 2 µM),relative viability ([4]; first compound 0.2 µM),relative viability ([4]; first compound 0.6325 µM),relative viability ([4]; first compound 2 µM),relative viability ([4]; first compound 6.325 µM),relative viability ([4]; first compound 20 µM)
NCI-H358,0.14,0.128,0.142,0.144,0.138,0.708,0.625,0.565,0.529,0.591,0.449,0.418,0.454,0.358,0.369,0.301,0.324,0.332,0.39,0.318
NCI-H2085,0.506,0.481,0.508,0.489,0.418,0.842,0.805,0.786,0.781,0.776,0.793,0.881,0.676,0.728,0.643,0.484,0.448,0.483,0.466,0.489
NCI-H1792,0.634,0.707,0.653,0.671,0.682,,0.56,0.419,0.317,0.373,0.78,1.13,0.846,0.862,0.85,0.24,0.337,0.389,0.252,0.303
NCI-H2405,0.52,0.572,0.537,0.553,0.528,0.859,1.01,0.931,0.899,0.804,,1.16,1.2,1.1,1.02,0.459,0.41,0.413,0.425,0.536
ABC-1,0.579,0.762,0.559,0.853,0.739,,0.786,0.939,0.598,0.816,1.42,1.1,1.11,1.1,1.13,0.821,1.03,0.768,0.923,0.868
201T,0.378,0.375,0.351,0.394,0.322,0.909,0.893,0.832,0.842,0.832,1.02,1.14,0.991,0.999,1.08,0.69,0.718,0.672,0.686,0.697
NCI-H1755,0.457,0.467,0.484,0.459,0.465,0.868,0.898,0.872,0.785,0.79,1.02,1.12,1.05,0.964,0.932,0.445,0.476,0.421,0.439,0.435
NCI-H650,0.31,0.357,0.344,0.402,0.372,0.38,0.373,0.398,0.386,0.35,0.787,1.06,1.23,0.491,0.766,0.946,0.935,0.775,0.859,0.883
NCI-H1651,0.528,0.52,0.521,0.524,0.518,0.176,0.196,0.202,0.184,0.192,0.812,0.794,0.71,0.786,0.754,0.691,0.69,0.636,0.537,0.537
NCI-H1437,0.308,0.306,0.299,0.337,0.257,0.656,0.633,0.655,0.615,0.607,0.892,0.91,0.798,0.823,0.779,0.412,0.501,0.471,0.424,0.363
NCI-H1975,0.668,0.599,0.613,0.544,0.631,0.881,0.916,0.892,0.786,0.679,0.969,0.986,0.852,0.845,0.797,0.279,0.276,0.277,0.256,0.299
BEN,0.502,0.497,0.481,0.483,0.443,1.16,1.18,1.23,1.01,0.764,0.702,0.814,0.846,0.67,0.63,0.607,0.581,0.733,0.523,0.645
NCI-H460,,0.22,0.184,0.145,0.176,0.443,0.492,0.445,0.46,0.422,1.19,1.13,0.958,0.97,0.981,0.392,0.373,0.463,0.365,0.403
NCI-H1944,0.351,0.343,0.311,0.333,0.371,0.426,0.413,0.404,0.401,0.52,,0.858,0.793,0.756,0.884,0.344,0.381,0.353,0.349,0.374
HOP-62,0.442,0.499,0.419,0.456,0.485,0.435,0.406,0.608,0.602,0.575,1.05,1.3,1.19,1.2,1.14,0.72,1.09,0.717,0.783,0.782
